From publication PMC10384011, “m-Terphenylamines, Acting as Selective COX-1 Inhibitors, Block Microglia Inflammatory Response and Exert Neuroprotective Activity” (Molecules, 2023)

Tests used:
[1] = biological target: T1, ovine COX-1 (Ovis aries, UniProt P05979); test: Cyclooxygenase colorimetric inhibitor screening assay, COX-1; assay type: biochemical; settings: for IC50: ovine COX-1, colorimetric kit, triplicate; for IC50 / inhibition at 50 µM: read-out: oCOX-1; for inhibition at 50 µM: % Inhibition at 50 µM (converted);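 on all read-outs here: COX peroxidase activity read colorimetrically as oxidized TMPD at 590 nm, arachidonic acid as substrate, inhibitors tested at 0.001–50 µM from DMSO stocks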
T1 construct: purchased Cayman Chemicals 701050
T1 sequence (P05979 25-600): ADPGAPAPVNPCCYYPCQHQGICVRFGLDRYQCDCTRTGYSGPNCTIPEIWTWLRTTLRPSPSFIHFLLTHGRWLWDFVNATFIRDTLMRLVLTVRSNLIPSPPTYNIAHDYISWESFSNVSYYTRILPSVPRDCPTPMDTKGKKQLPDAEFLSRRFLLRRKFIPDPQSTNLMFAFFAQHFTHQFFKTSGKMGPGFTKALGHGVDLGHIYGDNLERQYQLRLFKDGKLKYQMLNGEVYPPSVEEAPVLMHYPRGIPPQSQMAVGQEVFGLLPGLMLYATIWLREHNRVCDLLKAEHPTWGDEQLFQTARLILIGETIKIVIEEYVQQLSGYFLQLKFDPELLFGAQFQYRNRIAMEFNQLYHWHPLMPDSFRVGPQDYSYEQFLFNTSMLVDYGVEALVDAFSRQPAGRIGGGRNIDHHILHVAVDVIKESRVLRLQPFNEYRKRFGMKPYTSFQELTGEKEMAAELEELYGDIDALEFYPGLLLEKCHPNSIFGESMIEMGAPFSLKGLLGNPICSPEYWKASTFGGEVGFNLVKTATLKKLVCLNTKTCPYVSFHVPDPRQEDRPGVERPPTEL
Experimental: (§1) Newly synthesized compounds were evaluated for their ability to inhibit ovine COX-1 or human COX-2 enzyme by measuring the extent (%) of enzyme activity inhibition at different concentrations (0.001, 0.01, 0.1, 1, 10, 50 μM). […] The assay kit measures the peroxidase component of COXs that is assayed colorimetrically by monitoring the appearance of oxidized N,N,N′,N′-tetramethyl-p-phenylenediamine (TMPD) a λ = 590 nm. […] Stock solutions of test compounds were dissolved in DMSO.

[2] = biological target: T2, human COX-2 (Homo sapiens, UniProt P35354); test: Cyclooxygenase colorimetric inhibitor screening assay, COX-2; assay type: biochemical; settings: read-out: hCOX-2; for IC50: human COX-2, colorimetric kit; for inhibition at 50 µM: human COX-2, 50 µM;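 on all read-outs here: peroxidase activity of COX-2 followed colorimetrically through formation of oxidized TMPD at 590 nm, with arachidonic acid as substrate, compounds tested from 0.001 to 50 µM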
T2 construct: purchased Cayman Chemicals 701050
T2 sequence (P35354 18-604): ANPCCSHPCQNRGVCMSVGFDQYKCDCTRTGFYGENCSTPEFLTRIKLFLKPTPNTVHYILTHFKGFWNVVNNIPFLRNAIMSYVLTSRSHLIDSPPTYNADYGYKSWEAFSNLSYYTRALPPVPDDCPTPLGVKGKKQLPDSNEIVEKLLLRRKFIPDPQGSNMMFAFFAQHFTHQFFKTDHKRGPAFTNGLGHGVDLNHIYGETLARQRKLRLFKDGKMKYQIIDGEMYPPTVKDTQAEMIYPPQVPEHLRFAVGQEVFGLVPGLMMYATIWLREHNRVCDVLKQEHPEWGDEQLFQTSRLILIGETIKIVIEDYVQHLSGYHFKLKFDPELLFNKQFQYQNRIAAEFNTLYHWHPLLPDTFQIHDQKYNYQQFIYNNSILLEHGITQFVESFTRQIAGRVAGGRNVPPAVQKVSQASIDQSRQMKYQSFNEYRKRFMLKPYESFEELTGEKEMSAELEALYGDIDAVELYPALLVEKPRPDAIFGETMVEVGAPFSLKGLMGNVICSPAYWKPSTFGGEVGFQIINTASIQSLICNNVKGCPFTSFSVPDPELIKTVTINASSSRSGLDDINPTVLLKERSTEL
Experimental: as §1

Compound	IC50 [1]	IC50 [2]	inhibition at 50 µM ([1]; ovine COX-1, 50 µM)	inhibition at 50 µM [2]	melting point	oCOX-1; % Inhibition at 50 µM ([1]; ovine COX-1, 50 µM)
CCOC(=O)c1c(N)cc(-c2ccccc2)cc1-c1ccccc1 [Compound 1a, ethyl 6-amino-2,4-diphenylbenzoate]	> 50 µM	> 50 µM	–	–	–	–
Nc1cc(-c2ccccc2)cc(-c2ccccc2)c1C(=O)O [Compound 2a, 6-Amino-2,4-diphenylbenzoic acid]	–	–	32%	3%	162 to 163 °C	–
Cc1ccc(-c2cc(N)c(C(=O)O)c(-c3ccccc3)c2)cc1 [Compound 2b, 6-Amino-2-phenyl-4-(4-tolyl)benzoic acid]	–	–	46%	2%	–	–
Nc1cc(-c2ccc(Cl)cc2)cc(-c2ccccc2)c1C(=O)O [Compound 2c, 6-Amino-2-phenyl-4-(4-chlorophenyl)benzoic acid]	> 50 µM	–	–	4%	229 to 230 °C	–
Nc1cc(-c2ccc(Cl)cc2)cc(-c2ccc(Cl)cc2)c1C(=O)O [Compound 2d, 6-Amino-2,4-di-(4-chlorophenyl)benzoic acid]	> 50 µM	–	–	13%	178 to 179 °C	–
COc1ccc(-c2cc(N)c(C(=O)O)c(-c3ccccc3)c2)cc1 [Compound 2e, 6-Amino-2-phenyl-4-(4-methoxyphenyl)benzoic acid]	> 50 µM	–	–	20%	–	–
Nc1cc(-c2ccc(Br)cc2)cc(-c2ccc(Br)cc2)c1C(=O)O [Compound 2f, 6-Amino-2,4-di-(4-bromophenyl)benzoic acid]	–	–	8%	12%	239 to 240 °C	–
O=C(O)c1c(Nc2ccccc2)cc(-c2ccccc2)cc1-c1ccccc1 [Compound 2g, 6-Phenylamino-2,4-diphenylbenzoic acid]	–	–	7%	13%	–	–
CCOC(=O)c1c(NC(=O)NC2CCCCC2)cc(-c2ccccc2)cc1-c1ccc(OC)cc1 [Compound 5, Ethyl 6-(3′-cyclohexylureido)-2-(4-methoxyphenyl)-4-phenylbenzoate]	> 50 µM	> 50 µM	–	–	–	–
COc1ccc(-c2noc(CC(=O)O)c2-c2ccc(OC)cc2)cc1 [Mofezolac, mofezolac, reference compound]	–	–	100%	42%	–	–
ethyl 6-amino-2-(4-methoxyphenyl)-2-phenylbenzoate [Compound 1e]	–	> 50 µM	–	–	–	NM (9) %

The remaining lines, values ahead:

IC50 [1]	IC50 [2]	inhibition at 50 µM ([1]; ovine COX-1, 50 µM)	inhibition at 50 µM [2]	melting point	oCOX-1; % Inhibition at 50 µM ([1]; ovine COX-1, 50 µM)	Compound
> 50 µM	> 50 µM	–	–	163 to 164 °C	–	Nc1cc(-c2ccc(Br)cc2)cc(-c2ccc(Br)cc2)c1 [Compound 3f, 4,4″-Dibromo-5′-amino-m-terphenyl]
> 50 µM	> 50 µM	–	–	–	–	c1ccc(Nc2cc(-c3ccccc3)cc(-c3ccccc3)c2)cc1 [Compound 3g, 5′-Phenylamino-m-terphenyl]
> 50 µM	> 50 µM	–	–	–	–	O=C(Nc1cc(-c2ccccc2)cc(-c2ccccc2)c1)NC1CCCC1 [Compound 4a, 1-([m-Terphenyl]-5′-yl)-3-cyclopentyl urea]
> 50 µM	> 50 µM	–	–	217 to 218 °C	–	Cc1ccc(-c2cc(NC(=O)NC3CCCC3)cc(-c3ccccc3)c2)cc1 [Compound 4b, 1-([4-Methyl-m-terphenyl]-5′-yl)-3-cyclopentyl urea]
> 50 µM	> 50 µM	–	–	203 to 204 °C	–	O=C(Nc1cc(-c2ccccc2)cc(-c2ccc(Cl)cc2)c1)NC1CCCC1 [Compound 4c, 1-([4-Chloro-m-terphenyl]-5′-yl)-3-cyclopentylurea]
> 50 µM	> 50 µM	–	–	239 to 240 °C	–	O=C(Nc1cc(-c2ccc(Cl)cc2)cc(-c2ccc(Cl)cc2)c1)NC1CCCC1 [Compound 4d, 1-([4,4″-Dichloro-m-terphenyl]-5′-yl)-3-cyclopentylurea]
> 50 µM	> 50 µM	–	–	208 to 209 °C	–	COc1ccc(-c2cc(NC(=O)NC3CCCC3)cc(-c3ccccc3)c2)cc1 [Compound 4e, 1-([4-Methoxy-m-terphenyl]-5′-yl)-3-cyclopentylurea]
